Values after ≈ are worked out from the molar mass of the structure shown. Active and inactive are the calls of the source. No cut-off for these calls is given here.
Legend:
Trichophyton rubrum = experiment: Antifungal activity against Trichophyton rubrum ATCC 28188 after 6 days; assay type: functional; details: ATCC 28188, 144 h
Candida parapsilosis [1] = experiment: Antifungal activity against Candida parapsilosis ATCC 22019 at 0.5 MIC up to 24 hrs by time kill study; assay type: functional, organism-based
[2] = Selectivity index, ratio of IC50 for african green monkey Vero cells to IC50 for Candida lusitaniae ATCC 200951; assay type: toxicity, cell-based; details: read-out: Ratio IC50
Aspergillus terreus = experiment: Antifungal activity against Aspergillus terreus CDC 317 after 48 hrs; assay type: functional; details: CDC 317, 48 h
Candida parapsilosis [3] = experiment: Antifungal activity against Candida parapsilosis ATCC 22019 at > MIC up to 24 hrs by time kill study; assay type: functional, organism-based
[4] = Selectivity index, ratio of IC50 for african green monkey Vero cells to IC50 for Aspergillus flavus ATCC 204304; assay type: toxicity, cell-based; details: read-out: Ratio IC50
[5] = Selectivity index, ratio of IC50 for african green monkey Vero cells to IC50 for Candida parapsilosis ATCC 22019; assay type: toxicity, cell-based
Aspergillus fumigatus = experiment: Antifungal activity against Aspergillus fumigatus ATCC 204305 after 48 hrs; assay type: functional; details: ATCC 204305, 48 h
Aspergillus flavus = experiment: Antifungal activity against Aspergillus flavus ATCC 204304 after 48 hrs; assay type: functional; details: ATCC 204304, 48 h
Candida tropicalis [6] = experiment: Antifungal activity against Candida tropicalis ATCC 200956 after 24 hrs; assay type: functional; details: ATCC 200956, 24 h
Fusarium oxysporum = experiment: Antifungal activity against Fusarium oxysporum ATCC 48112 after 48 hrs; assay type: functional; details: ATCC 48112, 48 h
[7] = Selectivity index, ratio of IC50 for african green monkey Vero cells to IC50 for Candida krusei ATCC 6258; assay type: toxicity, cell-based; details: read-out: Ratio IC50
Aspergillus niger = experiment: Antifungal activity against Aspergillus niger ATCC 16404 after 48 hrs; assay type: functional; details: ATCC 16404, 48 h
Candida parapsilosis [8] = experiment: Antifungal activity against Candida parapsilosis ATCC 22019 after 24 hrs; assay type: functional; details: ATCC 22019, 24 h
[9] = tested on: Trichophyton mentagrophytes; experiment: Antifungal activity against Trichophyton mentagrophytes ATCC 24198 after 6 days; assay type: functional; details: ATCC 24198, 144 h
Candida albicans [10] = experiment: Antifungal activity against Candida albicans ATCC 10231 after 24 hrs; assay type: functional; details: ATCC 10231, 24 h
Vero = experiment: Cytotoxicity against african green monkey Vero cells after 48 hrs by MTT assay; assay type: cell-based; details: Chlorocebus sabaeus
Candida albicans [11] = experiment: Antifungal activity against Candida albicans ATCC 90028 after 24 hrs; assay type: functional; details: ATCC 90028, 24 h
Pichia kudriavzevii = experiment: Antifungal activity against Candida krusei ATCC 6258 after 24 hrs; assay type: functional; details: ATCC 6258, 24 h
Clavispora lusitaniae = experiment: Antifungal activity against Candida lusitaniae ATCC 200951 after 24 hrs; assay type: functional; details: ATCC 200951, 24 h
Candida tropicalis [12] = experiment: Antifungal activity against Candida tropicalis CECT 11901 after 24 hrs; details: CECT 11901, 24 h

Row | Compound | MIC90 (Trichophyton rubrum) [µg/mL] | Activity (Candida parapsilosis [3]) | selectivity ratio [4] | MIC90 (Aspergillus fumigatus) [µg/mL] | MIC90 (Aspergillus flavus) [µg/mL] | MIC90 (Candida parapsilosis [8]) [µg/mL] | MIC90 [9] [µg/mL] | IC50 (Vero) [µg/mL] | MIC90 (Pichia kudriavzevii) [µg/mL] | also measured
1 | CC1(C)CCCc2cc3c(cc21)C(=O)C(Cl)=C(Cl)C3=O | 8 (≈ 25.9 µM) | Active | > 5.2 | 8 (≈ 25.9 µM) | 4.8 (≈ 15.5 µM) | 2 (≈ 6.47 µM) | 6.1 (≈ 19.7 µM) | ≤ 25 | 1 (≈ 3.23 µM) | Activity (Candida parapsilosis [1]): inactive; selectivity ratio [2]: > 12.5; MIC90 (Aspergillus terreus): > 32 µg/mL; selectivity ratio [5]: > 12.5; MIC90 (Candida tropicalis [6]): 5 µg/mL (≈ 16.2 µM); MIC90 (Fusarium oxysporum): > 32 µg/mL; selectivity ratio [7]: > 25; MIC90 (Aspergillus niger): > 32 µg/mL; MIC90 (Candida albicans [10]): > 32 µg/mL; MIC90 (Candida albicans [11]): 8 µg/mL (≈ 25.9 µM); MIC90 (Clavispora lusitaniae): 2 µg/mL (≈ 6.47 µM); MIC90 (Candida tropicalis [12]): > 32 µg/mL
2 | C[C@@H]1[C@H](O)[C@@H](C)/C=C/C=C/C=C/C=C/C=C/C=C/C=C/[C@H](O[C@@H]2O[C@H](C)[C@@H](O)[C@H](N)[C@@H]2O)C[C@@H]2O[C@](O)(C[C@@H](O)C[C@@H](O)[C@H](O)CC[C@@H](O)C[C@@H](O)CC(=O)O[C@H]1C)C[C@H](O)[C@H]2C(=O)O [AMPHOTERICIN B] | < 0.004 | Active | 7.1 | 2 (≈ 2.16 µM) | 4 (≈ 4.33 µM) | 2 (≈ 2.16 µM) | < 0.004 | 28.6 (≈ 30.9 µM) | 2 (≈ 2.16 µM) | 

— ChEMBL document CHEMBL2417537, “Synthesis and antifungal activity of terpenyl-1,4-naphthoquinone and 1,4-anthracenedione derivatives” (Eur J Med Chem, 2013)
